Experimental data taken from patent US20110053773A1, “METHODS OF IMPROVING NUTRITIONAL VALUE OF PLANTS” (UNIVERSITY OF TENNESSEE RESEARCH FOUNDATION, priority 2009, published 2011).

Legend:
kale 'Red Russian' = assay: Content analysis of kale: protein, amino acids, fiber, fatty acids, minerals (Example 4, Tables 12-14); assay type: in vivo; settings: 28 DA-A
Method in brief: (§1)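 Greenhouse postemergence applications of chlorpyrifos, chlorothalonil, mepiquat-chloride, paclobutrazol, napthalic anhydride or isoxadifen-ethyl. Visual injury (phytotoxicity, chlorosis, stunting) scored 0–100%, 0 = no response, 100 = plant death. Harvest about 4 weeks after treatment; replicates pooled for protein, mineral, amino acid, fiber and fatty acid analysis.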

basil ‘Genovese’ = assay: Yield, fresh weight of basil after insecticide, fungicide, PGRs and safeners (Example 4, Table 10); assay type: in vivo; settings: DA-A, check 31.8
Method in brief: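 Plants received postemergence sprays of one insecticide, one fungicide, two PGRs or two safeners in the greenhouse. About 4 weeks later they were harvested, and replicates were pooled for laboratory content analysis. Injury was rated visually on a 0–100% scale.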

basil 'Genovese' = assay: Visual injury of basil after insecticide, fungicide, PGRs, safeners (Example 4)
Method in brief: as §1

[1] = first-listed rate g ai/ha: chlropyrifos ###, chlorothalonil ###, paclobutrazol 3.2, mepiquat-chloride 12, + NIS 0.3 % v/v
[2] = rates g ai/ha: chlropyrifos 1120, chlorothalonil 2630, paclobutrazol 3.23, mepiquat-chloride 12.3, + NIS 0.25 % v/v
[3] = rates g ai/ha: chlropyrifos 3370, chlorothalonil 7900, paclobutrazol 9.7, mepiquat-chloride 37, + NIS 0.25 % v/v
[4] = second-listed rate g ai/ha: chlropyrifos ###, chlorothalonil ###, paclobutrazol 9.7, mepiquat-chloride 37, + NIS 0.3 % v/v
[5] = 7 DA-A, rates g ai/ha: chlropyrifos 1120, chlorothalonil 2630, paclobutrazol 3.23, mepiquat-chloride 12.3, Isoxadifen 8, Napthalic anhydride 264, + NIS 0.25 % v/v
[6] = 7 DA-A, rates g ai/ha: chlropyrifos 3370, chlorothalonil 7900, paclobutrazol 9.7, mepiquat-chloride 37, Isoxadifen 16, Napthalic anhydride 527, + NIS 0.25 % v/v
[7] = 14 DA-A, rates g ai/ha: chlropyrifos 1120, chlorothalonil 2630, paclobutrazol 3.23, mepiquat-chloride 12.3, Isoxadifen 8, Napthalic anhydride 264, + NIS 0.25 % v/v
[8] = 14 DA-A, rates g ai/ha: chlropyrifos 3370, chlorothalonil 7900, paclobutrazol 9.7, mepiquat-chloride 37, Isoxadifen 16, Napthalic anhydride 527, + NIS 0.25 % v/v
[9] = 28 DA-A, rates g ai/ha: chlropyrifos 1120, chlorothalonil 2630, paclobutrazol 3.23, mepiquat-chloride 12.3, Isoxadifen 8, Napthalic anhydride 264, + NIS 0.25 % v/v
[10] = 28 DA-A, rates g ai/ha: chlropyrifos 3370, chlorothalonil 7900, paclobutrazol 9.7, mepiquat-chloride 37, Isoxadifen 16, Napthalic anhydride 527, + NIS 0.25 % v/v

CC(C)(C)[C@@H](O)[C@@H](Cc1ccc(Cl)cc1)n1cncn1 (racemic) [paclobutrazol]
Total Protein, Percent Increase over the Untreated Check (on a % dry matter basis) (kale 'Red Russian'; [1]): 0 % check | Valine, Percent Increase over the Untreated Check (on a % dry matter basis) (kale 'Red Russian'; [1]): −6 % check | ADF, Percent Increase Over the Untreated Check (on a % dry matter basis) (kale 'Red Russian'; [2]): 11 % check | Calcium, Percent Increase Over the Untreated Check (on a % dry matter basis) (kale 'Red Russian'; [2]): 11 % check | Copper, Percent Increase Over the Untreated Check (on a % dry matter basis) (kale 'Red Russian'; [2]): 12 % check | Iron, Percent Increase Over the Untreated Check (on a % dry matter basis) (kale 'Red Russian'; [2]): −3 % check | Magnesium, Percent Increase Over the Untreated Check (on a % dry matter basis) (kale 'Red Russian'; [2]): 8 % check | Manganese, Percent Increase Over the Untreated Check (on a % dry matter basis) (kale 'Red Russian'; [2]): 10 % check | NDF, Percent Increase Over the Untreated Check (on a % dry matter basis) (kale 'Red Russian'; [2]): −3 % check | Phosphorous, Percent Increase Over the Untreated Check (on a % dry matter basis) (kale 'Red Russian'; [2]): 6 % check | Potassium, Percent Increase Over the Untreated Check (on a % dry matter basis) (kale 'Red Russian'; [2]): 3 % check | Sodium, Percent Increase Over the Untreated Check (on a % dry matter basis) (kale 'Red Russian'; [2]): −1 % check | Zinc, Percent Increase Over the Untreated Check (on a % dry matter basis) (kale 'Red Russian'; [2]): 11 % check | ADF, Percent Increase Over the Untreated Check (on a % dry matter basis) (kale 'Red Russian'; [3]): −1 % check | Calcium, Percent Increase Over the Untreated Check (on a % dry matter basis) (kale 'Red Russian'; [3]): 22 % check | Copper, Percent Increase Over the Untreated Check (on a % dry matter basis) (kale 'Red Russian'; [3]): 28 % check | Iron, Percent Increase Over the Untreated Check (on a % dry matter basis) (kale 'Red Russian'; [3]): −5 % check | Magnesium, Percent Increase Over the Untreated Check (on a % dry matter basis) (kale 'Red Russian'; [3]): 11 % check | Manganese, Percent Increase Over the Untreated Check (on a % dry matter basis) (kale 'Red Russian'; [3]): 20 % check | NDF, Percent Increase Over the Untreated Check (on a % dry matter basis) (kale 'Red Russian'; [3]): −8 % check | Phosphorous, Percent Increase Over the Untreated Check (on a % dry matter basis) (kale 'Red Russian'; [3]): 12 % check | Potassium, Percent Increase Over the Untreated Check (on a % dry matter basis) (kale 'Red Russian'; [3]): 15 % check | Sodium, Percent Increase Over the Untreated Check (on a % dry matter basis) (kale 'Red Russian'; [3]): 11 % check | Zinc, Percent Increase Over the Untreated Check (on a % dry matter basis) (kale 'Red Russian'; [3]): 13 % check | Alanine, Percent Increase over the Untreated Check (on a % dry matter basis) (kale 'Red Russian'; [4]): 4 % check | Aspartic acid, Percent Increase over the Untreated Check (on a % dry matter basis) (kale 'Red Russian'; [4]): 12 % check | Cysteine, Percent Increase over the Untreated Check (on a % dry matter basis) (kale 'Red Russian'; [4]): 6 % check | Glutamic acid, Percent Increase over the Untreated Check (on a % dry matter basis) (kale 'Red Russian'; [4]): 16 % check | Glycine, Percent Increase over the Untreated Check (on a % dry matter basis) (kale 'Red Russian'; [4]): 3 % check | Iso-leucine, Percent Increase over the Untreated Check (on a % dry matter basis) (kale 'Red Russian'; [4]): 6 % check | Leucine, Percent Increase over the Untreated Check (on a % dry matter basis) (kale 'Red Russian'; [4]): 5 % check | Lysine, Percent Increase over the Untreated Check (on a % dry matter basis) (kale 'Red Russian'; [4]): 14 % check | Methionine, Percent Increase over the Untreated Check (on a % dry matter basis) (kale 'Red Russian'; [4]): 2 % check | Proline, Percent Increase over the Untreated Check (on a % dry matter basis) (kale 'Red Russian'; [4]): 7 % check | Threonine, Percent Increase over the Untreated Check (on a % dry matter basis) (kale 'Red Russian'; [4]): 4 % check | Total Amino acids, Percent Increase over the Untreated Check (on a % dry matter basis) (kale 'Red Russian'; [4]): 9 % check | Total Protein, Percent Increase over the Untreated Check (on a % dry matter basis) (kale 'Red Russian'; [4]): 13 % check | Valine, Percent Increase over the Untreated Check (on a % dry matter basis) (kale 'Red Russian'; [4]): 6 % check | Yield Fresh weight (basil ‘Genovese’; rates g ai/ha: chlropyrifos 1120, chlorothalonil 2630, paclobutrazol 3.23, mepiquat-chloride 12.3, Isoxadifen 8, Napthalic anhydride 264, + NIS 0.25 % v/v): 22.4 grams | Yield Fresh weight (basil ‘Genovese’; rates g ai/ha: chlropyrifos 3370, chlorothalonil 7900, paclobutrazol 9.7, mepiquat-chloride 37, Isoxadifen 16, Napthalic anhydride 527, + NIS 0.25 % v/v): 24.4 grams | Phytotoxicity Chlorosis (basil 'Genovese'; [5]): 8% | Phytotoxicity General (basil 'Genovese'; [5]): 3% | Phytotoxicity Stunting (basil 'Genovese'; [5]): 3% | Phytotoxicity Chlorosis (basil 'Genovese'; [6]): 5% | Phytotoxicity General (basil 'Genovese'; [6]): 3% | Phytotoxicity Stunting (basil 'Genovese'; [6]): 2% | Phytotoxicity Chlorosis (basil 'Genovese'; [7]): 5% | Phytotoxicity General (basil 'Genovese'; [7]): 0% | Phytotoxicity Stunting (basil 'Genovese'; [7]): 7% | Phytotoxicity Chlorosis (basil 'Genovese'; [8]): 7% | Phytotoxicity General (basil 'Genovese'; [8]): 0% | Phytotoxicity Stunting (basil 'Genovese'; [8]): 5% | Phytotoxicity Chlorosis (basil 'Genovese'; [9]): 3% | Phytotoxicity General (basil 'Genovese'; [9]): 5% | Phytotoxicity Stunting (basil 'Genovese'; [9]): 8% | Phytotoxicity Chlorosis (basil 'Genovese'; [10]): 7% | Phytotoxicity General (basil 'Genovese'; [10]): 2% | Phytotoxicity Stunting (basil 'Genovese'; [10]): 2%
